Measured values as given in patent publication US12268747B2, “Polypeptides having anti-senescent effects and uses thereof” (OneSkin, Inc., priority 2019, dated 2025).
Peptide text beside a SMILES is read from it.

Legend:
Caenorhabditis elegans = assay: C. elegans healthspan and lifespan; format: in vivo; details: 1 μM and 2 μM, no decrease in worm movement at either time point
Experimental: Senotherapeutic strategies can be linked to healthspan and lifespan extension in vivo. In order to assess whether Peptide 14 promotes extended healthspan and lifespan, Caenorhabditis elegans worms were used. Peptide 14 was added in the worm media (M9 buffer media) at different concentrations of 1 μM or 2 μM. Negative control worms received vehicle only. Two healthspan parameters were assessed i) pharyngeal pumping and ii) worm movement. Lifespan was also determined. For pharyngeal pumping analysis, 15 worms had their pharynx movement (pumping) observed daily and counted for 20 seconds. This experiment was repeated 3 times, by 2 different blind observers, employing different populations of animals at different days. Statistical difference was detected by analyzing each individual time point by One-Way ANOVA and Dunnet's post hoc test. All groups were compared with the H2O group. For worm movement analysis, the basic movement of C. elegans, also called thrashing, was measured daily for 15 worms. […] Statistical difference was detected by analyzing each individual time point by One-Way ANOVA and Dunnet's post hoc, and all groups were compared with the H2O group. […] The average lifespan was measured. Statistical difference was detected by analyzing each individual time point by One-Way ANOVA and Dunnet's post hoc, and all groups were compared with the H2O group (FIG. 18).

[1] = system: Human primary fibroblasts isolated from 3 healthy chronologically aged (elder) donors; assay: 3-week exposure: SA-β-galactosidase senescence and proliferation; format: cell-based; details: 3.12 μM, counted at days 7, 14, 21, 28
Experimental: Human primary fibroblasts isolated from 3 healthy chronologically aged (elder) donors were used. These cells were cultured in DMEM (Dulbecco's Modified Eagle's Medium) supplemented with 10% v.v. fetal bovine serum (FBS), and 1% v.v. of penicillin/streptomycin solution (1,000 U·mL−1). Cells were kept in a 5% CO2, 37° C. and 95% humidity atmosphere. After expansion, these cells were seeded in T-75 flasks (250,000 cells per flask) and, 6 hours after plating, were incubated for 3 weeks (21 days) with Peptide 14 at 3.12 μM. A negative control comprised untreated cells, which received vehicle only. Day 0 was defined as the day cells started to be treated with Peptide 14. No Peptide 14 treatment was performed between days 21 and 28. Weekly, cellular senescence was assessed according to senescence associated β-galactosidase staining levels. Data was normalized to untreated group and plotted (FIG. 4, panel A). Cellular proliferation was also determined weekly. At days 7, 14, 21, and 28, cells were trypsinized and counted (FIG. 4, panel B). After counting, 250,000 cells were plated in new T-75 flasks. Three independent experiments (biological replicates) including three technical replicates were performed. Data was analyzed using T-test. Statistical significance was determined as p values equal or lower than 0.05.

[2] = system: human primary fibroblasts isolated from 3 healthy donors, UVB exposed; assay: UVB-induced senescence in fibroblasts; format: cell-based; details: 5 μM, 48 hours after UVB
Experimental: Cellular senescence may be caused by several different stimuli. In order to assess whether Peptide 14 was effective against UVB-induced and chemically-induced senescence, human primary fibroblasts isolated from 3 healthy donors were used. These cells were cultured in DMEM (Dulbecco's Modified Eagle's Medium) supplemented with 10% v.v. fetal bovine serum (FBS), and 1% v.v. of penicillin/streptomycin solution (1,000 U·mL−1). Cells were kept in a 5% CO2, 37° C. and 95% humidity atmosphere. After expansion, these cells were seeded in 96-well plates (4,000 cells per well) and, 6 hours after plating, were submitted to either etoposide (20 μM) treatment for 24 hours, or exposed twice to 0.05 J/cm^2 of UVB radiation. […] After incubation, relative cellular senescence (assessed by the activity of senescence associated β-galactosidase staining relative to untreated control) was analyzed and plotted in column graphs. ATRX foci were also assessed following ATRX immunofluorescence staining. Graphs were built using the average ATRX foci detected per nuclei. […] Data was analyzed using with either t-test or ANOVA followed by a Bonferroni post-hoc test. Statistical significance was determined as p-values equal or lower than 0.05 (FIG. 6).

[3] = system: human skin equivalents from elder donors; assay: Human skin equivalents: histology score and morphology (Example 18); format: cell-based; details: 0.01% w/v (or 1 μM), 5 days; vehicle control 21.00
Experimental: To test the effect of Peptide 13 and Peptide 14 treatment on human skin models and the skin morphology, human primary fibroblasts and keratinocytes isolated from healthy elder donors were used to build human skin equivalents. The skin equivalents were treated with 0.01% w/v (or 1 μM) of Peptide 13 or Peptide 14 for 5 days. The negative controls were treated with formulation only. After the 5-day culture, the skin equivalents were analyzed for epidermal thickness, which was quantified according to total epidermal area. Quality assessment based several parameters was performed by blind analysts. […] A minimal score of 19 was required for batch use. This score was validated internally and shown to decrease with age/senescence of the skin equivalents or cultured cells. Three independent experiments were performed with three technical replicates. Data were analyzed using a t-test. Statistical significance was determined as p-values equal or lower than 0.05. The statistically significant p-values are noted by * for p<0.05; ** for p<0.01; *** for p<0.001; **** for p<0.0001 between the groups.

[4] = system: p16, BLIMP1, ZYG11B, IL-8, Ki-67, ZIC1, MMP1, HAS2 mRNA in 3D skin equivalents; assay: 3D skin equivalents: relative mRNA expression of senescence, aging and health markers; format: cell-based, human
Experimental: 3D skin equivalent sections of samples built with cells from elder donors ([…]) were treated with 1 μM Peptide 14 or Peptide 13, or 20 μM Retinoic Acid (RA) and assessed for the effect of the various treatments of various markers of senescence, aging, and health.
Data are presented as 2-ddCt normalized to GAPDH and untreated control. *p<0.05. Peptide 13 and Peptide 14-treated samples generally had similar relative mRNA expression levels for p16, BLIMP1, ZYG11B, IL-8, and Ki-67 in the epidermal layer, and for p16, MMP1, HAS2, IL-8, and Ki-67 in the dermal layer. Peptide 13 and Peptide 14-treated samples generally had lower relative mRNA expression levels than RA-treated samples for p16, BLIMP1, ZYG11B, IL-8, in the epidermal layer and for p16, MMP1, IL-8, and Ki-67 in the dermal layer. Peptide 13 and Peptide 14-treated samples generally had higher relative mRNA expression levels than RA-treated samples for Ki-67 in the epidermal layer and for HAS2 for the dermal layer. Peptide 13 and Peptide 14-treated samples had similar relative mRNA expression levels as RA-treated samples for ZIC1 and Ki-67 for dermal layer.

fibroblasts, UVB exposed = assay: SA-B-galactosidase staining in UVB-exposed fibroblasts (Example 8); format: cell-based, human; details: 48 hours after UVB 2 x 0.05 J/cm^2
Experimental: (§1) In order to shed light into the mechanism of action of Peptide 14 and similar Peptide 13, Akt S473 phosphorylation (FIG. 8, panel A), senescence associated β-galactosidase staining (FIG. 8, panel B), as well as mRNA expression (FIG. 8, panel C) were investigated. For Akt S473 phosphorylation analysis using western blotting, human primary fibroblasts and keratinocytes were used. These cells were used to build human skin equivalents, which were kept in a 5% CO2, 37° C. and 95% humidity atmosphere air liquid interface. Then, skin equivalents were treated with 1 μM of either Peptide 14 or Peptide 13 for 5 days, and protein analysis was performed on the skin equivalents. Protein was isolated and quantified. Equal amounts of protein were loaded in polyacrylamide gels and transferred into a nitrocellulose membrane. […] Relative pAkt S473/GAPDH signal was compared between treated and non-treated samples. For senescence associated B-galactosidase staining experiments, fibroblasts were used. […] Total RNA was isolated, samples were reverse transcribed, and mRNA expression of GAPDH, sirtuin 6 (SIRT6), BLM, and exonuclease 1 (EXO1) genes were determined using qPCR. […] CT values were analyzed using the 2^−ΔΔCt method. […] Data was analyzed using a T-test. Statistical significance was determined as p values equal or lower than 0.05 (FIG. 8).

pAkt S473 = assay: Akt S473 phosphorylation western blot in human skin equivalents; format: cell-based; details: 1 μM, 5 days
Experimental: as §1

[5] = system: Primary fibroblasts isolated from 3 healthy chronologically aged patients; assay: SA-B-galactosidase senescence in fibroblasts of aged donors, concentration series; format: cell-based, human; details: 1.56-50 μM (Peptide 16: 1.56-25 μM), 48 hours; in at least one of the tested concentrations
Experimental: Primary fibroblasts isolated from 3 healthy chronologically aged patients were used. Cells were cultured in DMEM (Dulbecco's Modified Eagle's Medium) supplemented with 10% v.v. fetal bovine serum (FBS), and 1% v.v. of penicillin/streptomycin solution (1,000 U·mL−1). Cells were kept in a 5% CO2, 37° C. and 95% humidity atmosphere. After expansion, these cells were seeded in 96-well plates (4,000 cells per well) and, 6 hours after plating the cells were treated with one of 4 senotherapeutic polypeptides (Peptide 14, Peptide 13, Peptide 15, and Peptide 16) and incubated for 48 hours. Each polypeptide was tested at 6 different concentrations: 50 μM, 25 μM, 12.5 μM, 6.25 μM, 3.12 μM, and 1.56 μM, except for Peptide 16, which was tested at 5 different concentrations: 25 μM, 12.5 μM, 6.25 μM, 3.12 μM, and 1.56 μM. A negative control comprised untreated cells, which received vehicle only. After incubation, relative cellular senescence (assessed by the activity of senescence associated B-galactosidase staining relative to untreated control) was analyzed (FIG. 2, panels A-D), in which the Y axis indicates the relative senescence levels normalized to untreated control. Each column corresponds to a different concentration of a polypeptide. Three independent experiments (biological replicates) including three technical replicates were performed. Data was analyzed using Analysis of Variance (ANOVA) and a Bonferroni post-hoc tests. Statistical significance was determined as p values equal or lower than 0.05.

[6] = 1 μM peptide vs 20 μM Retinoic Acid

| Compound | toxicity to C. elegans (worm movement) (Caenorhabditis elegans) | cell proliferation vs untreated control [1] | cell number [2] | mean of histology scores (maximum 28) [3] | relative mRNA, Peptide 13 vs Peptide 14: p16, BLIMP1, ZYG11B, IL-8, Ki-67 (epidermal); p16, MMP1, HAS2, IL-8, Ki-67 (dermal) ([4]; 1 μM each) | relative mRNA vs RA-treated samples: Ki-67 (epidermal), HAS2 (dermal) [4, 6] | relative mRNA vs RA-treated samples: ZIC1 and Ki-67 (dermal) [4, 6] | relative mRNA vs RA-treated samples: p16, BLIMP1, ZYG11B, IL-8 (epidermal); p16, MMP1, IL-8, Ki-67 (dermal) [4, 6] | SA-B-galactosidase staining in UVB-exposed samples (fibroblasts, UVB exposed) | pAkt S473 in dermal samples (pAkt S473) | pAkt S473 in epidermal samples (pAkt S473) | relative cellular senescence (SA-B-galactosidase staining) vs untreated control [5] |
| --- | --- | --- | --- | --- | --- | --- | --- | --- | --- | --- | --- | --- |
| CC[C@H](C)[C@H](NC(=O)CNC(=O)[C@H](CCCCN)NC(=O)[C@H](CC(C)C)NC(=O)[C@H](Cc1c[nH]c2ccccc12)NC(=O)[C@H](Cc1c[nH]cn1)NC(=O)[C@H](CCCCN)NC(=O)[C@H](C)NC(=O)[C@@H](NC(=O)[C@@H](N)CCC(=O)O)[C@@H](C)O)C(=O)O [Peptide 14, ETAKHWLKGI] (H-ETAKHWLKGI-OH; N-terminus and C-terminus assumed) | not toxic | No significant differences | did not significantly alter | – | – | – | – | – | – | – | – | – |
| ATAKAWLKGI [Peptide 13] | – | – | – | 23.44 | similar | higher | similar | lower | decreased staining | decreased | dermal samples only | senotherapeutic effects |
